pEC50: −log10 of the molar value. Several values for one entry are separate records, joined by “and”; a condition that tells them apart may be missing. Identical values can stand only once. Like-named read-outs stand apart in the source and are kept apart here.
How the values were obtained:
RPMI-8226/GN1 = experiment: Multiple myeloma cells in mono- and co-culture with osteoblasts, imaging based detection (RPMI-8226); format: cell-based
Description: (§1) Compound 86 has been compared with the key compound of WO 2000/21926 A2 (Example 121) in an imaging based detection system.
(§2) Two different multiple myeloma (MM) cell lines (RPMI-8226 (DSMZ, ACC 402), NCI-H929 DSMZ, ACC 163) have been used and were cultured in mono- and co-culture with osteoblasts (OB) (Osteoblasts were obtained by culturing hMSCs with a differentiation inducing medium for two weeks) in accordance with the method of Karadag A. et al. Journal of Bone and Mineral Research Vol. 15, No. 10, 2000 page 1935-43.

NCI-H929/GN2 = experiment: Multiple myeloma cells in mono- and co-culture with osteoblasts, imaging based detection (NCI-H929); format: cell-based
Description: as §1, §2

pEC50 (RPMI-8226/GN1; Homo sapiens, RPMI-8226, RPMI-8226/GN1, co-culture with osteoblasts, read-out: co-culture (+ OB) EC50): 6.38 | pEC50 (RPMI-8226/GN1; Homo sapiens, RPMI-8226, RPMI-8226/GN1, mono-culture, read-out: mono-culture EC50): 6.92 | pEC50 (RPMI-8226/GN1; RPMI-8226/GN1, co-culture with osteoblasts, read-out: co-culture (+ OB) EC50): 6.28 and 6.19 | pEC50 (RPMI-8226/GN1; RPMI-8226/GN1, mono-culture, read-out: mono-culture EC50): 6.70 and 6.68 | pEC50 (NCI-H929/GN2; Homo sapiens, NCI-H929, NCI-H929/GN2, co-culture with osteoblasts, read-out: co-culture (+ OB) EC50): 6.80 | pEC50 (NCI-H929/GN2; Homo sapiens, NCI-H929, NCI-H929/GN2, mono-culture, read-out: mono-culture EC50): 7.30 | pEC50 (NCI-H929/GN2; NCI-H929/GN2, co-culture with osteoblasts, read-out: co-culture (+ OB) EC50): 6.82 | pEC50 (NCI-H929/GN2; NCI-H929/GN2, mono-culture, read-out: mono-culture EC50): 7.19
SMILES: CC(C)c1nn(-c2c(Cl)cc(Cl)cc2Cl)c2nc(Cc3ccc(NC(=O)C4CN(C)CCN4C)cc3)[nH]c(=O)c12 (centres unmarked) [Reference compound, reference compound]

From patent publication US11091490B2, “3-amino-1,5-dihydro-pyrazolo[3,4-d]pyrimidin-4-ones as cyclin dependent kinase inhibitors” (Oncotyrol Center for Personalized Cancer Medicine GMBH, priority 2016, dated 2021)
